Assay results: PubChem BioAssay AID1963858 (Molecular Pharmacology Branch, DTP, NCI, 2024)

Tested on: HOP-62 multicell spheroids with HUVEC/MSC, viability
Experiment: Anticancer human tumor HOP-62 cell line growth inhibition [KRAS2];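 note: viability read after a week of compound exposure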;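 for viability, T/C: 100% = DMSO vehicle-treated spheroids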
Conditions: for IC50: curve of first compound; for viability, T/C: stronger effect = lower value
From the text: Multicellular complex tumor spheroid response to RAS pathway inhibitors in combination with a targeted agents in patient-derived cell lines with oncogenic KRAS variants from multiple cancer types
A high-throughput screen of multi-cell type tumor spheroids was designed to identify active combinations of targeted small molecules and KRAS pathway inhibitors. Complex spheroids include a stromal component modeled by human endothelial cells (HUVEC) and fibroblasts modeled by human mesenchymal stem cells (MSCs). The concentration ranges selected for each drug and investigational agent were based upon clinically achievable concentrations if the clinical Cmax of the agent was known.
Compounds. The drugs and investigational agents: BI-3406 (NSC825286), BAY-293 (NSC824723), batoprotafib (TNO155; NSC825523), sotorasib (AMG 510; NSC818433), MRTX1257 (NSC819558), elimusertib (BAY 1895344; NSC800525), molibresib (GSK525762; NSC774829), temuterkib (LY3214996; NSC803410), venetoclax (NSC766270), alisertib (NSC759677), olaparib (NSC753686), talazoparib (NSC767125), erdafitinib (NSC781556), ipatasertib (NSC767898), cabozantinib (NSC761068), nintedanib (NSC756659), abemaciclib (NSC768073), docetaxel (NSC628503), trametinib (NSC758246), and sapanisertib (NSC764658) were obtained from the National Cancer Institute (NCI) Developmental Therapeutics Program Chemical Repository. The FDA-approved anticancer drug set is available from the Developmental Therapeutics Program. […] The stock solutions were prepared in dimethyl sulfoxide (DMSO, Sigma-Aldrich, St. Louis, MO, cat. D2650) at 800-fold the tested concentration and stored at -70 degrees C prior to their use. All drugs and investigational agents were tested over a range starting from a high concentration at or near the clinical Cmax and decreasing in half-log increments. If the clinical Cmax for an agent had not been determined, the highest concentration tested was 10 microM.
Cell Culture. All cells were maintained in an incubator at 37 degrees C and 5% CO2 with 95% humidity. The PDC lines were cultured according to standard operating procedures established by the NCI PDMR (https://pdmr.cancer.gov/sops/default.htm). Briefly, all PDCs were thawed and cultured in Matrigel-coated flasks prepared with a working solution of 1X Ham's F-12 nutrient mix, without supplementation (Invitrogen, Waltham, MA, cat. 11765054), 100 U/mL penicillin-streptomycin (Invitrogen, cat. 15140122), and 2.5% Matrigel (Corning Inc., Corning, NY, cat. 354248) for the first three passages. All PDCs were cultured in complete DMEM/F-12 media containing advanced DMEM/F-12 (Invitrogen, cat. 12634028), 4.9% defined fetal bovine serum, heat inactivated (HyClone Laboratories Inc., Logan, UT, cat. SH30070.03HI), 389 ng/mL hydrocortisone (Sigma-Aldrich, cat. H4001), 9.7 ng/mL human EGF recombinant protein (Invitrogen, cat. PHG0313), 23.4 microg/mL adenine (Sigma-Aldrich, cat. A2786), 97.3 U/mL penicillin-streptomycin (Invitrogen, cat. 15140122), 1.9 mM L-glutamine (Invitrogen, cat. 25030081), and 9.7 microM Y-27632 dihydrochloride (Tocris Bioscience, Bristol, United Kingdom, cat. 1254). The PDCs were cultured in complete DMEM/F12 media without 9.7 microM Y-27632 dihydrochloride for at least two passages prior to the screen. The established cell line HOP-62 was cultured in RPMI 1640 medium, HEPES (Invitrogen, cat. 22400105) with 10% defined fetal bovine serum (HyClone Laboratories Inc., cat. SH30070.03) and 2 mM L-glutamine (Invitrogen, cat. 25030081). The pooled donor HUVEC were cultured in endothelial cell growth medium 2 (PromoCell, Heidelberg, Germany, cat. C-22011) and the hMSC were cultured in mesenchymal stem cell growth medium 2 (PromoCell, cat. C-28009). For all experiments, HUVEC and hMSC were used at passages </=5, while the malignant cell lines were used at passages </=15. […]

[1] = second compound 0.1 µM, first compound 0.0316 µM
[2] = second compound 0.1 µM, first compound 0.1 µM
[3] = second compound 0.316 µM, first compound 0.0316 µM
[4] = second compound 0.316 µM, first compound 0.1 µM
[5] = second compound 1 µM, first compound 0.0316 µM
[6] = second compound 1 µM, first compound 0.1 µM
[7] = second compound 3.16 µM, first compound 0.0316 µM
[8] = second compound 3.16 µM, first compound 0.1 µM
[9] = second compound 10 µM, first compound 0.0316 µM
[10] = second compound 10 µM, first compound 0.1 µM

## Cn1ncnc1[C@H]1c2n[nH]c(=O)c3cc(F)cc(c23)N[C@@H]1c1ccc(F)cc1 + COc1cc2nc(C)nc(NC(C)c3cc(N)cc(C(F)(F)F)c3)c2cc1OC1CCOC1
Second compound 0.1 µM
  IC50: > 0.1 µM
Second compound 0.316 µM
  IC50: > 0.1 µM
Second compound 1 µM
  IC50: > 0.1 µM
Second compound 3.16 µM
  IC50: 0.0742 µM
Second compound 10 µM
  IC50: 0.00296 µM
Second compound 0.1 µM, first compound 0.000316 µM
  viability, T/C: 95.1%
Second compound 0.1 µM, first compound 0.001 µM
  viability, T/C: 102%
Second compound 0.1 µM, first compound 0.00316 µM
  viability, T/C: 94.3%
Second compound 0.1 µM, first compound 0.01 µM
  viability, T/C: 87%
[1]
  viability, T/C: 97.6%
[2]
  viability, T/C: 70.4%
Second compound 0.316 µM, first compound 0.000316 µM
  viability, T/C: 104%
Second compound 0.316 µM, first compound 0.001 µM
  viability, T/C: 91.7%
Second compound 0.316 µM, first compound 0.00316 µM
  viability, T/C: 86.8%
Second compound 0.316 µM, first compound 0.01 µM
  viability, T/C: 94.2%
[3]
  viability, T/C: 83.5%
[4]
  viability, T/C: 78.8%
Second compound 1 µM, first compound 0.000316 µM
  viability, T/C: 96%
Second compound 1 µM, first compound 0.001 µM
  viability, T/C: 89.5%
Second compound 1 µM, first compound 0.00316 µM
  viability, T/C: 69.9%
Second compound 1 µM, first compound 0.01 µM
  viability, T/C: 66.6%
[5]
  viability, T/C: 66%
[6]
  viability, T/C: 57.1%
Second compound 3.16 µM, first compound 0.000316 µM
  viability, T/C: 75.7%
Second compound 3.16 µM, first compound 0.001 µM
  viability, T/C: 85.6%
Second compound 3.16 µM, first compound 0.00316 µM
  viability, T/C: 72.8%
Second compound 3.16 µM, first compound 0.01 µM
  viability, T/C: 58.1%
[7]
  viability, T/C: 48.5%
[8]
  viability, T/C: 51%
Second compound 10 µM, first compound 0.000316 µM
  viability, T/C: 58.6%
Second compound 10 µM, first compound 0.001 µM
  viability, T/C: 59%
Second compound 10 µM, first compound 0.00316 µM
  viability, T/C: 50.8%
Second compound 10 µM, first compound 0.01 µM
  viability, T/C: 40.8%
[9]
  viability, T/C: 42.8%
[10]
  viability, T/C: 41.6%

## CC(C)NCC(C(=O)N1CCN(c2ncnc3c2C(C)CC3O)CC1)c1ccc(Cl)cc1 (stereo not given) + CNCc1ccccc1-c1csc(C(C)Nc2nc(C)nc3cc(OC)c(OC)cc23)c1
Second compound 0.1 µM
  IC50: 0.844 µM
Second compound 0.316 µM
  IC50: 0.608 µM
Second compound 1 µM
  IC50: 0.212 µM
Second compound 3.16 µM
  IC50: < 0.0316 µM
Second compound 10 µM
  IC50: < 0.0316 µM
[1]
  viability, T/C: 119%
[2]
  viability, T/C: 83%
Second compound 0.1 µM, first compound 0.316 µM
  viability, T/C: 83.4%
Second compound 0.1 µM, first compound 1 µM
  viability, T/C: 45.9%
Second compound 0.1 µM, first compound 3.16 µM
  viability, T/C: 17.2%
Second compound 0.1 µM, first compound 10 µM
  viability, T/C: 10.3%
[3]
  viability, T/C: 89.5%
[4]
  viability, T/C: 78.5%
Second compound 0.316 µM, first compound 0.316 µM
  viability, T/C: 73.7%
Second compound 0.316 µM, first compound 1 µM
  viability, T/C: 32.4%
Second compound 0.316 µM, first compound 3.16 µM
  viability, T/C: 13.4%
Second compound 0.316 µM, first compound 10 µM
  viability, T/C: 10.2%
[5]
  viability, T/C: 81.3%
[6]
  viability, T/C: 74.8%
Second compound 1 µM, first compound 0.316 µM
  viability, T/C: 35.6%
Second compound 1 µM, first compound 1 µM
  viability, T/C: 23.4%
Second compound 1 µM, first compound 3.16 µM
  viability, T/C: 16.9%
Second compound 1 µM, first compound 10 µM
  viability, T/C: 9.94%
[7]
  viability, T/C: 0.41%
[8]
  viability, T/C: 0.71%
Second compound 3.16 µM, first compound 0.316 µM
  viability, T/C: 0.27%
Second compound 3.16 µM, first compound 1 µM
  viability, T/C: 0.47%
Second compound 3.16 µM, first compound 3.16 µM
  viability, T/C: 0.17%
Second compound 3.16 µM, first compound 10 µM
  viability, T/C: 0.26%
[9]
  viability, T/C: 0.24%
[10]
  viability, T/C: 0.26%
Second compound 10 µM, first compound 0.316 µM
  viability, T/C: 0.26%
Second compound 10 µM, first compound 1 µM
  viability, T/C: 0.25%
Second compound 10 µM, first compound 3.16 µM
  viability, T/C: 0.23%
Second compound 10 µM, first compound 10 µM
  viability, T/C: 0.33%
